Test results taken from patent publication US8895558B2, “Arylpiperazine-containing pyrrole 3-carboxamide derivatives for treating depressive disorders” (Green Cross Corporation, priority 2008, dated 2014).
Where a name gives a salt, the structure may show the parent alone.

Assays:
[1] = target: T1, human recombinant 5-HT2C receptor (Homo sapiens, UniProt P28335); experiment: Binding affinity for serotonin 5-HT2C receptor ([3H]Mesulergine); conditions: CHO-K1 membranes, 1.3 nM [3H]Mesulergine
T1 construct: purchased PerkinElmer
T1 sequence (P28335 33-458): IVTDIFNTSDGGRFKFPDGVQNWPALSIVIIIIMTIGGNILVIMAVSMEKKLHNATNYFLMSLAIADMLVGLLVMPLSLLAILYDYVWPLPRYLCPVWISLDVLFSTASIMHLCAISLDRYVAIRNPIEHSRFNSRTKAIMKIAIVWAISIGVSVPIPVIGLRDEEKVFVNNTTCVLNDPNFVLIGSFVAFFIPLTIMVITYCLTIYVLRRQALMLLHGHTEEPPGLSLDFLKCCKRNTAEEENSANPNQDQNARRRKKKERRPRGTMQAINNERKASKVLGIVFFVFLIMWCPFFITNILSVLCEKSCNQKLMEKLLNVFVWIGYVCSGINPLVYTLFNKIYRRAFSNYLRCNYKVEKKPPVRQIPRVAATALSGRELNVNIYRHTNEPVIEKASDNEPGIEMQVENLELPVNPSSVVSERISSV
Experimental: Receptor binding affinities of the compounds for serotonin receptors were measured by the method described in the literature [Park W K et al., Pharmacol Biochem Behav.
(§1) The binding affinity (IC50) of a compound for the receptor was calculated by computerized nonlinear regression analysis (GraphPad Prism Program, San Diego, USA) using 7-8 varied concentrations of the compound run in duplicate tubes.
Nonspecific binding was determined using 100 uM mianserin. The incubations were performed for 60 min at 27, and these were terminated by rapid filtration through filtermate. A glass fiber filter presoaked in 0.5% PEI.

[2] = target: T2, human serotonin transporter (Homo sapiens, UniProt P31645); experiment: Binding affinity for serotonin transporter ([3H]Imipramine); conditions: HEK-293 membranes, 2 nM [3H]Imipramine
T2 construct: purchased PerkinElmer; host or cells: HEK-293
T2 sequence (P31645 whole entry): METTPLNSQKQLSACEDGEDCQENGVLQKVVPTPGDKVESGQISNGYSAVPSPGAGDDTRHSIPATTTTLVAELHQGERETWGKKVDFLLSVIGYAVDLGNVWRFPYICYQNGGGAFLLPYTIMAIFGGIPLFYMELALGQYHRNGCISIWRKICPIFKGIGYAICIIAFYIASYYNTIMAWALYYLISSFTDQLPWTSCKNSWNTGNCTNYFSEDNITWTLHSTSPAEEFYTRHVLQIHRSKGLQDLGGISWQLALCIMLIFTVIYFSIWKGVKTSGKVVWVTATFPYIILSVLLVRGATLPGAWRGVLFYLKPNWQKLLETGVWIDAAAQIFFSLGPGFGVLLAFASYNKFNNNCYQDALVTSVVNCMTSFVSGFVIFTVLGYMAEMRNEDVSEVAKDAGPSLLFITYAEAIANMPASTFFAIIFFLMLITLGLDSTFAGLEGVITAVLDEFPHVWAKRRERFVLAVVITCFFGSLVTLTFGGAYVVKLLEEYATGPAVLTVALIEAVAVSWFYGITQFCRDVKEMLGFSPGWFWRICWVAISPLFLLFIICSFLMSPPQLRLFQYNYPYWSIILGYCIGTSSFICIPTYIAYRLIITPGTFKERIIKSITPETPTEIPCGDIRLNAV
Experimental: For serotonin transporter binding assays, a reaction mixture with a final volume of 0.25 ml was prepared by mixing a test compound, human serotonin transporter membrane expressed in HEK-293 cells (PerkinElmer, 5 ug/well), [^3H]Imipramine (PerkinElmer, 2 nM) and 50 mM Tris-HCl (pH 7.4) buffer containing 120 mM NaCl and 5 mM KCl. The reaction mixture was incubated for 30 min at 27, and harvested through filtermate. A glass fiber filter presoaked in 0.5% PEI with ice cold 50 mM Tris-HCl buffer (pH 7.4) containing 0.9% NaCl.

[3] = target: T3, human recombinant serotonin 5-HT2A receptor (Homo sapiens, UniProt P28223); experiment: Binding affinity for serotonin 5-HT2A receptor ([3H]Ketanserin); conditions: CHO-K1 expressed receptor, 1 nM [3H]Ketanserin
T3 construct: purchased PerkinElmer Life and Analytical Sciences, USA; host or cells: CHO-K1
T3 sequence (P28223 whole entry): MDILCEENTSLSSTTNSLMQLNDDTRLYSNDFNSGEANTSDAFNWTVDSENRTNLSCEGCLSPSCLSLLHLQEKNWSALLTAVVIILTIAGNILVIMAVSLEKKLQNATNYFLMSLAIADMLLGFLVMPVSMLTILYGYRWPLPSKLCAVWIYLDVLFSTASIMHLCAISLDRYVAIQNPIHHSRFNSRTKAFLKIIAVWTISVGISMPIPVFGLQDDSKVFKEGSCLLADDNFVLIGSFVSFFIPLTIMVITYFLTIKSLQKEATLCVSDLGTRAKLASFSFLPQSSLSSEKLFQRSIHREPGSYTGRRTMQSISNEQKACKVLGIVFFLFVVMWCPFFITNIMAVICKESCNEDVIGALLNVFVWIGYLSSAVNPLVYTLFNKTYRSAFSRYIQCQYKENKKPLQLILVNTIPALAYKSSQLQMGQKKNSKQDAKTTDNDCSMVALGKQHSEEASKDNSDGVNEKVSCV
Experimental: Receptor binding affinities of the compounds for serotonin receptors were measured by the method described in the literature [Park W K et al., Pharmacol Biochem Behav. 2005, 82(2), 361-372].
For serotonin 5-HT2A binding, an aliquot of human recombinant serotonin 5-HT2A receptor (PerkinElmer Life and Analytical Sciences, USA) expressed in CHO-K1 cells (5 ug/well) and 1 nM [^3H]Ketanserin (PerkinElmer) were used in the presence of mianserin (20 uM) as nonspecific. The reaction mixture was incubated for 60 min at 27 using 50 mM Tris-HCl (pH 7.4) buffer containing 4 mM CaCl2 and 0.1% ascorbic acid, and harvested through filtermate A glass fiber filter (Wallac, Finland) presoaked in 0.5% polyethyleneimine (PEI) by microbeta filtermate-96 harvester (PerkinElmer) to terminate the reaction, and then washed with ice cold 50 mM Tris-HCl buffer solution (pH 7.4). The filter was then covered with MeltiLex, sealed in a sample bag, dried in an oven. The radioactivity retained in the filter was finally counted using MicroBeta Plus (Wallac).
as §1

Structure (SMILES)	IC50 [1] [µM]	IC50 [2] [µM]	IC50 [3] [µM]
CCn1c(-c2ccccc2)cc(C(=O)NCCCCN2CCN(c3cccc(C)c3C)CC2)c1C [Example 42, N-(4-(4-(2,3-dimethylphenyl)piperazin-1-yl)butyl)-1-ethyl-2-methyl-5-phenyl-1H-pyrrole-3-carboxamide hydrochloride]	0.017	0.065	0.01
CCCn1c(-c2ccccc2)cc(C(=O)N(C)CCCN2CCN(c3cccc(Cl)c3Cl)CC2)c1C [Example 31, N-(3-(4-(2,3-dichlorophenyl)piperazin-1-yl)propyl)-N,2-dimethyl-5-phenyl-1-propyl-1H-pyrrole-3-carboxamide hydrochloride]	0.0207	0.102	0.0332
Cc1c(C(=O)NCCN2CCN(c3cccc(Cl)c3Cl)CC2)cc(-c2ccc(Cl)cc2)n1C [Example 68, 5-(4-chlorophenyl)-N-(2-(4-(2,3-dichlorophenyl)piperazin-1-yl)ethyl)-1,2-dimethyl-1H-pyrrole-3-carboxamide hydrochloride]	0.024	0.176	0.292
CCCn1c(-c2cccnc2)cc(C(=O)NCCCN2CCN(c3cccc(Cl)c3Cl)CC2)c1C [Example 101, N-(3-(4-(2,3-dichlorophenyl)piperazin-1-yl)propyl)-2-methyl-1-propyl-5-(pyridin-3-yl)-1H-pyrrole-3-carboxamide]	0.344	0.133	0.046
Cc1c(C(=O)NCCCN2CCN(c3cccc(Cl)c3Cl)CC2)cc(C(C)(C)C)n1C [Example 128, 5-tert-butyl-N-(3-(4-(2,3-dichlorophenyl)piperazin-1-yl)propyl)-1,2-dimethyl-1H-pyrrole-3-carboxamide]	1.02	0.375	0.163
Cc1c(C(=O)NCCCN2CCN(c3cc(Cl)ccc3Cl)CC2)cc(-c2ccccc2)n1C [Example 156, N-(3-(4-(2,5-Ddichlorophenyl)piperazin-1-yl)propyl)-1,2-dimethyl-5-phenyl-1H-pyrrole-3-carboxamide]	0.806	0.134	0.585
CCn1c(C)c(C(=O)NCCCN2CCN(c3cccc(Cl)c3Cl)CC2)c(C)c1-c1ccccc1 [Example 80, N-(3-(4-(2,3-dichlorophenyl)piperazin-1-yl)propyl)-1-ethyl-2,4-dimethyl-5-phenyl-1H-pyrrole-3-carboxamide hydrochloride]	0.042	0.097	0.047
CCCn1c(-c2ccccc2)cc(C(=O)NCCCN2CCN(c3cccc(Cl)c3Cl)CC2)c1C [Example 12, N-(3-(4-(2,3-dichlorophenyl)piperazin-1-yl)propyl)-2-methyl-5-phenyl-1-propyl-1H-pyrrole-3-carboxamide]	0.628	0.42	0.324
CCCCn1c(-c2ccccc2)cc(C(=O)NCCCN2CCN(c3cccc(Cl)c3Cl)CC2)c1C [Example 71, 1-butyl-N-(3-(4-(2,3-dichlorophenyl)piperazin-1-yl)propyl)-2-methyl-5-phenyl-1H-pyrrole-3-carboxamide hydrochloride]	0.032	0.642	0.188
CCCn1c(-c2ccc(Cl)cc2)cc(C(=O)NCCCN2CCN(c3cccc(Cl)c3Cl)CC2)c1C [Example 66, 5-(4-chlorophenyl)-N-(3-(4-(2,3-dichlorophenyl)piperazin-1-yl)propyl)-2-methyl-1-propyl-1H-pyrrole-3-carboxamide hydrochloride]	0.041	1.16	0.333
Cc1c(C(=O)NCCCN2CCN(c3cccc(Cl)c3Cl)CC2)cc(-c2ccccc2)n1C [Example 10, N-(3-(4-(2,3-dichlorophenyl)piperazin-1-yl)propyl)-1,2-dimethyl-5-phenyl-1H-pyrrole-3-carboxamide]	0.012	0.0617	0.0462
CCn1c(-c2ccc(Cl)cc2)cc(C(=O)NCCN2CCN(c3cccc(Cl)c3Cl)CC2)c1C [Example 69, 5-(4-chlorophenyl)-N-(2-(4-(2,3-dichlorophenyl)piperazin-1-ypethyl)-1-ethyl-2-methyl-1H-pyrrole-3-carboxamide hydrochloride]	0.029	0.22	0.412
Cc1[nH]c(C(C)(C)C)cc1C(=O)NCCCN1CCN(c2cccc(Cl)c2Cl)CC1 [Example 127, 5-tert-butyl-N-(3-(4-(2,3-dichlorophenyl)piperazin-1-yl)propyl)-2-methyl-1H-pyrrole-3-carboxamide hydrochloride]	1.39	0.86	0.107
CCn1c(-c2ccccc2)cc(C(=O)NCCN2CCN(c3cccc(Cl)c3Cl)CC2)c1C [Example 49, N-(2-(4-(2,3-dichlorophenyl)piperazin-1-yl)ethyl)-1-ethyl-2-methyl-5-phenyl-1H-pyrrole-3-carboxamide hydrochloride]	0.096	0.085	0.1
CCn1c(-c2ccccc2)cc(C(=O)NCCCN2CCN(c3cccc(Cl)c3)CC2)c1C [Example 4, N-(3-(4-(3-chlorophenyl)piperazin-1-yl)propyl)-1-ethyl-2-methyl-5-phenyl-1H-pyrrole-3-carboxamide]	0.192	0.0258	0.092
Cc1c(C(=O)NCCCN2CCN(c3cccc(Cl)c3Cl)CC2)cc(-c2ccccc2)n1-c1ccc(F)cc1 [Example 16, N-(3-(4-(2,3-dichlorophenyl)piperazin-1-yl)propyl)-1-(4-fluorophenyl)-2-methyl-5-phenyl-1H-pyrrole-3-carboxamide]	0.466	0.266	0.0041
CCCn1c(-c2ccccc2)cc(C(=O)NCCN2CCN(c3cccc(Cl)c3Cl)CC2)c1C [Example 39, N-(2-(4-(2,3-dichlorophenyl)piperazin-1-yl)ethyl)-2-methyl-5-phenyl-1-propyl-1H-pyrrole-3-carboxamide hydrochloride]	0.31	0.032	0.408
Cc1c(C(=O)NCCCN2CCN(c3cccc(Cl)c3Cl)CC2)c(C)n(C)c1-c1ccccc1 [Example 79, N-(3-(4-(2,3-dichlorophenyl)piperazin-1-yl)propyl)-1,2,4-trimethyl-5-phenyl-1H-pyrrole-3-carboxamide hydrochloride]	0.016	0.08	0.033
COc1ccc(-c2cc(C(=O)NCCCN3CCN(c4cccc(Cl)c4Cl)CC3)c(C)[nH]2)cc1 [Example 73, N-(3-(4-(2,3-dichlorophenyl)piperazin-1-yl)propyl)-5-(4-methoxyphenyl)-2-methyl-1H-pyrrole-3-carboxamide hydrochloride]	0.201	0.204	0.037
Cc1cccc(N2CCN(CCCCNC(=O)c3cc(-c4ccc(Cl)cc4)[nH]c3C)CC2)c1C [Example 46, 5-(4-chlorophenyl)-N-(4-(4-(2,3-dimethylphenyl)piperazin-1-yl)butyl)-2-methyl-1H-pyrrole-3-carboxamide hydrochloride]	0.088	0.098	0.032
Cc1[nH]c(-c2ccccc2)c(C)c1C(=O)NCCCN1CCN(c2cccc(Cl)c2Cl)CC1 [Example 77, N-(3-(4-(2,3-dichlorophenyl)piperazin-1-yl)propyl)-2,4-dimethyl-5-phenyl-1H-pyrrole-3-carboxamide hydrochloride]	0.016	0.036	0.039
Cc1cccc(N2CCN(CCCNC(=O)c3cc(-c4ccc(Cl)cc4)[nH]c3C)CC2)c1C [Example 44, 5-(4-chlorophenyl)-N-(3-(4-(2,3-dimethylphenyl)piperazin-1-yl)propyl)-2-methyl-1H-pyrrole-3-carboxamide hydrochloride]	0.189	0.019	0.092
